This is an account of results in patent US10294226B2, “Small molecule inhibitors of the JAK family of kinases” (Janssen Pharmaceutica NV, priority 2016, dated 2019).

A short description of this data set: In vivo intracolonic (i.c.) dosing, plasma and colon concentrations (Protocol 3). Conditions: mice; for Plasma Concentration After i.c. Dosing, Mean: 5 mg/kg i.c. Also noted: species or system female C57BL/6 mice; key to Plasma Concentration After i.c. Dosing, Mean: ^: Mean was not calculated as the values for all three mice were below the lower limit of quantitation. The text has this: Plasma and colon concentration results were obtained by following Protocol 1 using venipuncture of dorsal metatarsal vein bleed for Compounds (B), (C), and Examples 6 and 11. Plasma and colon concentration results were obtained by following Protocol 2 using retro-orbital bleed for Compounds (A), and Examples 1, and 3-5 and Protocol 2 using venipuncture of the dorsal metatarsal vein for Examples 2, 7-10, and 12. Plasma and colon concentration results were obtained by following Protocol 3 for Examples 1, 3 and 4. These protocols are described below under the heading In vivo Studies.
Intracolonic (IC) dose group: Following anesthesia with isoflurane by inhalation, three non-fasted female C57BL/6 mice were administered the compound intracolonically through a small incision in the abdominal wall using a syringe and needle at a dose of 5 mg/kg as a solution in 20% HPβCD at a dose volume of 1 mL/kg. Blood samples were collected at 0.5, 2, and 4 h post dose via retro-orbital bleed. Blood samples were collected into tubes containing anticoagulant (Heparin-Na) and placed on wet ice. The plasma fraction was separated by centrifugation and frozen at −20° C. for up to 4 h and −80° C. after 4 h unless analyzed shortly after sample collection. Colon samples were collected at 4 h post dose. From 2 cm below the cecum, a 4-cm sample of the colon was dissected, cut open on the longitudinal axis, and the solid contents removed by flushing with 2 mL of saline. The colon was further washed by putting it in 5 mL of saline and shaken for 5 seconds. The colon sample was then patted dry, weighed, and homogenized as 1 part tissue (g) to 4 parts HPLC grade water (mL). Concentrations of the compound in plasma and colon homogenate were determined using a qualified liquid chromatography-triple quadrupole mass spectrometry (LC-MS/MS) method. This protocol was used to evaluate IC dosing of the following test compounds: Examples 1, 3, and 4.

Molecules are shown by their SMILES.

As to `CC(C)(O)CNC(=O)Cc1nc2cnc3[nH]ccc3c2n1[C@H]1CC[C@H](CC#N)CC1` [Ex. 1, 2-(1-((1r,4r)-4-(Cyanomethyl)cyclohexyl)-1,6-dihydroimidazo[4,5-d]pyrrolo[2,3-b]pyridin-2-yl)-N-(2-hydroxy-2-methylpropyl)acetamide], the “systemic exposure after i.c. dosing” value was “low systemic exposures”. Moreover, the “Plasma Concentration After i.c. Dosing, Mean” value (Time = 2 h) is listed as “^”. The “Plasma Concentration After i.c. Dosing, Mean” value (Time = 4 h) is given as “^”.

Regarding `N#CC[C@H]1CC[C@H](n2c(CC(=O)NCC3CC3)nc3cnc4[nH]ccc4c32)CC1` [Ex. 3, 2-(1-((1r,4r)-4-(Cyanomethyl)cyclohexyl)-1,6-dihydroimidazo[4,5-d]pyrrolo[2,3-b]pyridin-2-yl)-N-(cyclopropylmethyl)acetamide], the “systemic exposure after i.c. dosing” value is “low systemic exposures”. Moreover, the “Plasma Concentration After i.c. Dosing, Mean” value (Time = 2 h) is recorded as “^”. Where the note is “Time = 4 h”, the “Plasma Concentration After i.c. Dosing, Mean” value is recorded as “^”.

With `N#CCCNC(=O)Cc1nc2cnc3[nH]ccc3c2n1[C@H]1CC[C@H](CC#N)CC1` [Ex. 4, N-(2-Cyanoethyl)-2-(1-((1r,4r)-4-(cyanomethyl)cyclohexyl)-1,6-dihydroimidazo[4,5-d]pyrrolo[2,3-b]pyridin-2-yl)acetamide], the “systemic exposure after i.c. dosing” value is “low systemic exposures”. For the same compound, the “Plasma Concentration After i.c. Dosing, Mean” value (Time = 4 h) is “^”.
